Reference: PubChem BioAssay (NCI)
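Exposure lasted 48 hours, with cells grown in 96-well plates and compounds tested at five concentrations. GI50 = concentration required for 50% inhibition of growth. TGI: concentration producing complete growth inhibition.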

Columns and labels:
Assay in all cases: inhibition of tumour cell growth, NCI panel, 48 h
SK-MEL-2 melanoma = system: SK-MEL-2 melanoma
OVCAR-5 ovarian = system: OVCAR-5 ovarian
UACC-257 melanoma = system: UACC-257 melanoma
HCT-116 colon = system: HCT-116 colon
OVCAR-4 ovarian = system: OVCAR-4 ovarian
HOP-62 NSCLC = system: HOP-62 NSCLC
SK-OV-3 ovarian = system: SK-OV-3 ovarian
DLD-1 colon = system: DLD-1 colon
HCC-2998 colon = system: HCC-2998 colon
SN12C renal = system: SN12C renal
SF-268 CNS = system: SF-268 CNS
CAKI-1 renal = system: CAKI-1 renal
DMS 114 small cell lung = system: DMS 114 small cell lung
MALME-3M melanoma = system: MALME-3M melanoma
UACC-62 melanoma = system: UACC-62 melanoma
RPMI-8226 leukemia = system: RPMI-8226 leukemia
CCRF-CEM leukemia = system: CCRF-CEM leukemia
HT29 colon = system: HT29 colon
SR leukemia = system: SR leukemia
RXF-631 renal = system: RXF-631 renal
HCT-15 colon = system: HCT-15 colon
DMS 273 small cell lung = system: DMS 273 small cell lung
NCI-H522 lung = system: NCI-H522 lung
HOP-92 NSCLC = system: HOP-92 NSCLC
K-562 leukemia = system: K-562 leukemia
ACHN renal = system: ACHN renal
SK-MEL-5 melanoma = system: SK-MEL-5 melanoma
U251 CNS = system: U251 CNS
M19-MEL melanoma = system: M19-MEL melanoma
IGROV1 ovarian = system: IGROV1 ovarian
SW-620 colon = system: SW-620 colon
EKVX NSCLC = system: EKVX NSCLC
KM12 colon = system: KM12 colon
LXFL 529 NSCLC = system: LXFL 529 NSCLC
SNB-19 CNS = system: SNB-19 CNS
SF-539 CNS = system: SF-539 CNS
786-0 renal = system: 786-0 renal
COLO 205 colon = system: COLO 205 colon
HL-60(TB) leukemia = system: HL-60(TB) leukemia
A549 NSCLC = system: A549 NSCLC
MOLT-4 leukemia = system: MOLT-4 leukemia
OVCAR-3 ovarian = system: OVCAR-3 ovarian
HOP-18 NSCLC = system: HOP-18 NSCLC
HS 578T breast = system: HS 578T breast
SK-MEL-28 melanoma = system: SK-MEL-28 melanoma
NCI-H226 lung = system: NCI-H226 lung
PC-3 prostate = system: PC-3 prostate
MCF7 breast = system: MCF7 breast
NCI-H460 lung = system: NCI-H460 lung
NCI-H23 lung = system: NCI-H23 lung
OVCAR-8 ovarian = system: OVCAR-8 ovarian
NCI/ADR-RES ovarian = system: NCI/ADR-RES ovarian
UO-31 renal = system: UO-31 renal
RXF 393 renal = system: RXF 393 renal
BT-549 breast = system: BT-549 breast
TK-10 renal = system: TK-10 renal
SNB-78 CNS = system: SNB-78 CNS
A498 renal = system: A498 renal
SNB-75 CNS = system: SNB-75 CNS
SF-295 CNS = system: SF-295 CNS
LOX IMVI melanoma = system: LOX IMVI melanoma
T-47D breast = system: T-47D breast
DU-145 prostate = system: DU-145 prostate
MDA-N = system: MDA-N
MDA-MB-435 = system: MDA-MB-435
KM20L2 colon = system: KM20L2 colon
MDA-MB-231 breast = system: MDA-MB-231 breast
M14 melanoma = system: M14 melanoma
XF 498 CNS = system: XF 498 CNS

Question: How did the TGI (SK-MEL-2 melanoma) turn out when `COc1cc(/C=C\c2ccc(Br)cc2)cc(OC)c1OC` was run?
Answer: > 100 µM

Question: And the TGI (OVCAR-5 ovarian)?
Answer: 96.8 µM

Question: And the TGI (UACC-257 melanoma)?
Answer: 11.3 µM

Question: What about the TGI (HCT-116 colon) of the same molecule?
Answer: > 100 µM

Question: What about the TGI (OVCAR-4 ovarian) of the same molecule?
Answer: 64.1 µM

Question: What about the TGI (HOP-62 NSCLC) of the same molecule?
Answer: 23.9 µM

Question: What about the TGI (SK-OV-3 ovarian) of the same molecule?
Answer: > 100 µM

Question: What about the TGI (DLD-1 colon) of the same molecule?
Answer: > 100 µM

Question: What about the GI50 (HCC-2998 colon) of the same molecule?
Answer: 19.2 nM

Question: What about the TGI (HCC-2998 colon) of the same molecule?
Answer: 26.8 µM

Question: And the TGI (SN12C renal)?
Answer: > 100 µM

Question: And the TGI (SF-268 CNS)?
Answer: 54 µM

Question: What about the TGI (CAKI-1 renal) of the same molecule?
Answer: 18.5 µM

Question: And the TGI (DMS 114 small cell lung)?
Answer: 69.1 µM

Question: And the TGI (MALME-3M melanoma)?
Answer: 34.8 µM

Question: What about the TGI (UACC-62 melanoma) of the same molecule?
Answer: > 100 µM

Question: What about the TGI (RPMI-8226 leukemia) of the same molecule?
Answer: 27.6 µM

Question: And the TGI (CCRF-CEM leukemia)?
Answer: 13.8 µM

Question: What about the TGI (HT29 colon) of the same molecule?
Answer: 15 µM

Question: And the TGI (SR leukemia)?
Answer: 10.6 µM

Question: And the TGI (RXF-631 renal)?
Answer: > 100 µM

Question: And the TGI (HCT-15 colon)?
Answer: 34.7 µM

Question: And the TGI (DMS 273 small cell lung)?
Answer: 13.8 µM

Question: And the TGI (NCI-H522 lung)?
Answer: 0.00151 µM

Question: What about the TGI (HOP-92 NSCLC) of the same molecule?
Answer: > 100 µM

Question: And the TGI (K-562 leukemia)?
Answer: 36.8 µM

Question: What about the TGI (ACHN renal) of the same molecule?
Answer: > 100 µM

Question: What about the TGI (SK-MEL-5 melanoma) of the same molecule?
Answer: 0.109 µM

Question: And the TGI (U251 CNS)?
Answer: 0.012 µM

Question: And the GI50 (M19-MEL melanoma)?
Answer: 363 nM

Question: And the TGI (M19-MEL melanoma)?
Answer: > 100 µM

Question: What about the TGI (IGROV1 ovarian) of the same molecule?
Answer: > 100 µM

Question: What about the TGI (SW-620 colon) of the same molecule?
Answer: > 100 µM

Question: What about the TGI (EKVX NSCLC) of the same molecule?
Answer: > 100 µM

Question: What about the TGI (KM12 colon) of the same molecule?
Answer: > 100 µM

Question: And the TGI (LXFL 529 NSCLC)?
Answer: > 100 µM

Question: What about the TGI (SNB-19 CNS) of the same molecule?
Answer: > 100 µM

Question: What about the TGI (SF-539 CNS) of the same molecule?
Answer: 0.00366 µM

Question: What about the TGI (786-0 renal) of the same molecule?
Answer: 13.7 µM

Question: What about the TGI (COLO 205 colon) of the same molecule?
Answer: 1.21 µM

Question: What about the TGI (HL-60(TB) leukemia) of the same molecule?
Answer: 0.0032 µM

Question: And the TGI (A549 NSCLC)?
Answer: > 100 µM

Question: And the TGI (MOLT-4 leukemia)?
Answer: 0.326 µM

Question: How did the TGI (SK-MEL-2 melanoma) turn out when `O=C(CNc1ccc2c(=S)c3ccccc3[nH]c2c1)Nc1ccccc1-c1ccccc1NC(=O)CNc1ccc2c(=S)c3ccccc3[nH]c2c1` was run?
Answer: 34.4 µM

Question: What about the TGI (OVCAR-3 ovarian) of the same molecule?
Answer: 55 µM

Question: What about the TGI (HOP-18 NSCLC) of the same molecule?
Answer: 29.9 µM

Question: And the TGI (OVCAR-5 ovarian)?
Answer: 53.5 µM

Question: What about the TGI (HS 578T breast) of the same molecule?
Answer: > 77.7 µM

Question: What about the TGI (SK-MEL-28 melanoma) of the same molecule?
Answer: 41.2 µM

Question: What about the TGI (NCI-H226 lung) of the same molecule?
Answer: 54.6 µM

Question: And the TGI (PC-3 prostate)?
Answer: > 49.8 µM

Question: What about the TGI (UACC-257 melanoma) of the same molecule?
Answer: 45.3 µM

Question: What about the TGI (HCT-116 colon) of the same molecule?
Answer: 43.3 µM

Question: And the TGI (OVCAR-4 ovarian)?
Answer: 45.2 µM

Question: What about the TGI (HOP-62 NSCLC) of the same molecule?
Answer: 48.4 µM

Question: And the TGI (MCF7 breast)?
Answer: > 52.7 µM

Question: And the TGI (SK-OV-3 ovarian)?
Answer: 48.5 µM

Question: What about the TGI (NCI-H460 lung) of the same molecule?
Answer: 36.9 µM

Question: What about the TGI (DLD-1 colon) of the same molecule?
Answer: 23.9 µM

Question: What about the TGI (HCC-2998 colon) of the same molecule?
Answer: 31.5 µM

Question: And the TGI (SN12C renal)?
Answer: 53.7 µM

Question: What about the TGI (NCI-H23 lung) of the same molecule?
Answer: 32.3 µM

Question: And the TGI (OVCAR-8 ovarian)?
Answer: 55.7 µM

Question: What about the TGI (NCI/ADR-RES ovarian) of the same molecule?
Answer: > 63 µM

Question: And the TGI (UO-31 renal)?
Answer: 31.4 µM

Question: What about the TGI (SF-268 CNS) of the same molecule?
Answer: 52.8 µM

Question: What about the TGI (CAKI-1 renal) of the same molecule?
Answer: 75.6 µM

Question: And the TGI (DMS 114 small cell lung)?
Answer: 36.6 µM

Question: And the TGI (MALME-3M melanoma)?
Answer: 31.7 µM

Question: What about the TGI (UACC-62 melanoma) of the same molecule?
Answer: 44.3 µM

Question: And the TGI (RPMI-8226 leukemia)?
Answer: 49.9 µM

Question: What about the TGI (CCRF-CEM leukemia) of the same molecule?
Answer: 22.8 µM

Question: What about the TGI (RXF 393 renal) of the same molecule?
Answer: 56.6 µM

Question: What about the TGI (BT-549 breast) of the same molecule?
Answer: 56.7 µM

Question: What about the TGI (TK-10 renal) of the same molecule?
Answer: 43.9 µM

Question: What about the TGI (HT29 colon) of the same molecule?
Answer: 48.4 µM

Question: And the TGI (SNB-78 CNS)?
Answer: 82.9 µM

Question: What about the TGI (SR leukemia) of the same molecule?
Answer: 41.1 µM

Question: And the TGI (A498 renal)?
Answer: 55.6 µM

Question: What about the TGI (HCT-15 colon) of the same molecule?
Answer: 49.5 µM

Question: What about the TGI (SNB-75 CNS) of the same molecule?
Answer: 71.9 µM

Question: And the TGI (DMS 273 small cell lung)?
Answer: > 76.3 µM

Question: What about the TGI (NCI-H522 lung) of the same molecule?
Answer: 24.1 µM

Question: And the TGI (SF-295 CNS)?
Answer: 50.8 µM

Question: What about the TGI (HOP-92 NSCLC) of the same molecule?
Answer: 51.2 µM

Question: And the TGI (LOX IMVI melanoma)?
Answer: 55.6 µM

Question: What about the TGI (T-47D breast) of the same molecule?
Answer: > 50.1 µM

Question: What about the TGI (K-562 leukemia) of the same molecule?
Answer: > 53.6 µM

Question: What about the TGI (ACHN renal) of the same molecule?
Answer: 28.5 µM

Question: And the TGI (SK-MEL-5 melanoma)?
Answer: 35.3 µM

Question: What about the TGI (U251 CNS) of the same molecule?
Answer: 42.3 µM

Question: What about the TGI (DU-145 prostate) of the same molecule?
Answer: 37.4 µM

Question: What about the TGI (M19-MEL melanoma) of the same molecule?
Answer: > 55.5 µM

Question: And the TGI (MDA-N)?
Answer: > 51.3 µM

Question: What about the TGI (IGROV1 ovarian) of the same molecule?
Answer: 61 µM

Question: What about the TGI (SW-620 colon) of the same molecule?
Answer: 39.5 µM

Question: And the TGI (MDA-MB-435)?
Answer: > 52 µM

Question: And the TGI (EKVX NSCLC)?
Answer: 65.6 µM

Question: What about the TGI (KM12 colon) of the same molecule?
Answer: 42.7 µM

Question: What about the TGI (LXFL 529 NSCLC) of the same molecule?
Answer: 24.6 µM

Question: And the TGI (SNB-19 CNS)?
Answer: 41 µM

Question: What about the TGI (SF-539 CNS) of the same molecule?
Answer: 52 µM

Question: What about the TGI (786-0 renal) of the same molecule?
Answer: 32.9 µM

Question: And the TGI (KM20L2 colon)?
Answer: 47.4 µM

Question: And the TGI (COLO 205 colon)?
Answer: 35.8 µM

Question: What about the TGI (MDA-MB-231 breast) of the same molecule?
Answer: > 51.7 µM

Question: And the TGI (HL-60(TB) leukemia)?
Answer: 13.4 µM

Question: And the TGI (A549 NSCLC)?
Answer: 55.5 µM

Question: What about the TGI (M14 melanoma) of the same molecule?
Answer: 41.4 µM

Question: And the TGI (MOLT-4 leukemia)?
Answer: 46.7 µM

Question: And the TGI (XF 498 CNS)?
Answer: 41.1 µM
